One compound from patent US20260276656A1, “GUT MICROBIOTA-RELATED METHODS FOR TREATING DEMENTIA AND AGE-DEPENDENT COGNITIVE DECLINE” (Albert-Ludwigs-Universitat Freiburg, priority 2019, published 2026) can be followed below.

Data set [1] relates to prelimbic or infralimbic cortex of the mPFC. The data set can be described thus: In vivo recordings from prelimbic or infralimbic cortex, spike-spike synchronization. Details: species or system mouse. The settings on record: systemic application (intraperitoneally); n=9 mice; FIG. 8. As for the experimental part: C57BL/6J mice aged 10-11 weeks were anesthetized with isofluorane (induction: 3%, maintenance approximately 1.5%). Buprenorphin (0.05-0.1 mg/kg body weight) and Carprofen (4-5 mg/kg body weight) were injected for analgesia. During implantation, the body temperature was maintained with a heating pad. The skin was incised from the cerebellum to the nose and the bone cleaned with 3% H2O2. Ground and reference screws (1 mm diameter) were inserted anterior to the lambdoid suture. A third stabilizing screw was inserted on the left parietal bone. A microdrive loaded with 8 tetrodes made from tungsten wire (California Fine Wire Company) was inserted in the right prefrontal cortex at the coordinates AP+1.9, ML 0.4, DV−1.2 (from brain surface). The craniotomy was protected with vaseline and the microdrive fixed to the skull using dental cement. After the surgery, the mice were injected with buprenorphin and carprofen subcutaneously for 48 h hours and housed individually.
Local field potential were recorded with a wireless amplifier system (W4, Multichannel Systems) 2-21 days after surgery at a sampling rate of 2 kHz or with a wired recording system (RHD2000, Intan Technologies, sampling rate 10 kHz) on freely moving mice. Single-unit activity was recorded at 20-30 kHz using a 32-channel amplifier system (RHD2000, Intan Technologies). […]

Data set [2] is described as follows: Untargeted metabolomics of blood serum and brain tissue. Type of data set: in vivo, mouse. The settings on record: inferred from similarly elevated levels in serum and brain tissue of old mice. The method, then:
Blood serum and hippocampal brain tissue was removed from young and old mice and snap-frozen in liquid nitrogen after determining the weight. Sample analysis was conducted by Metabolon, Inc. using a proprietary series of organic and aqueous extractions to remove the protein content while allowing maximum recovery of small molecules. The extract was divided into two parts: one for analysis by LC and the other for analysis by GC. TurboVap® (Zymark) was used to remove the organic solvent content. Each sample was then frozen and dried under vacuum. The exact methodology can be provided by Metabolon, Inc. as their standard protocol for untargeted mass spectrometry metabolomics.
Samples were snap-frozen upon collection and stored at −80° C. until further processing at Metabolon, Inc. 52. Briefly, recovery standards were added prior to the first step in the extraction process for quality control purposes. […] Three types of controls were analyzed in concert with the experimental samples: samples generated from a pool of spike-in controls extensively characterized by Metabolon, Inc. or generated from a small portion of each experimental sample of interest served as technical replicate throughout the data set; extracted water samples served as process blanks; and a cocktail of standards spiked into every analyzed sample allowed instrument performance monitoring. […]

In the case of `C[N+](C)(C)CCCCC(=O)[O-]` [NNN-trimethyl-5-aminovalerate, 5-(trimethylammonio) pentanoate], the spike-spike-synchronization entry in data set [1] was “enhanced”. Also, the blood-brain barrier crossing result in data set [2] is on record as “cross the blood-brain barrier”.
